Measured values published in patent publication US6413541B1, “Disintegrating tablet in oral cavity and production thereof” (Dainippon Pharmaceutical Co., Ltd., priority 2000, dated 2002).
Like-named read-outs stand apart in the source and are kept apart here.

How the values were obtained:
[1] = Description: These saccharides can be used alone or in a mixture of two or more of these saccharides, and can usually be contained in an amount of about 0.1 to about 20% by weight, preferably in an amount of about 0.5 to about 10% by weight in the present tablet.
Purified water at 25° C. (20 ml) was put into a beaker, and thereto was added each saccharide under stirring. Xylitol, sorbitol, glucose and sucrose were added in portions of 1 g, and erythritol was added in portions of 0.5 g, and lactose and mannitol were added in portions of 0.1 g, each. The mixture was stirred for one hour, and the dissolved amount of each saccharide was determined. The amount dissolving in 100 ml of water was converted and used as solubility of the saccharide in the present specification.

[2] = in 100 ml of purified water at about 25° C.; Merck Index, 12th ed., 10220 (1996); cited from earlier work

solubility [1]	Structure (SMILES)	solubility [2]
about 47.5 g	OC[C@@H](O)[C@@H](O)CO [erythritol]	
about 130 g	OC[C@@H](O)[C@@H](O)[C@H](O)[C@@H](O)CO [sorbitol]	
	O=C[C@H](O)[C@@H](O)[C@H](O)CO [xylose]	about 125 g
about 135 g	OC[C@@H](O)[C@H](O)[C@@H](O)CO [xylitol]	
about 170 g	OC[C@H]1O[C@@](CO)(O[C@H]2O[C@H](CO)[C@@H](O)[C@H](O)[C@H]2O)[C@@H](O)[C@@H]1O [sucrose]	
